Test results as given in patent US4684664A, “Derivatives of β-(4-isocyano-1,2,3,4-diepoxycyclopentyl) acrylic acid” (Kureha Kagaku Kogyo Kabushiki Kaisha, priority 1984, dated 1987).
Converted amounts (≈) assume the structure as drawn.

How the values were obtained:
Format in all cases: cell-based
[1] = system: Staphylococcus aureus FDA 209PJc-1; assay: Antibacterial activity, agar-dilution MIC, organism No. 1; settings: Staphylococcus aureus, FDA209PJC1; Organism No. 1, bouillon-agar; read-out: Minimum Inhibitory Concentration
Summary of the method: (§1)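 MICs were determined by agar dilution on bouillon-agar medium. The value is the minimum concentration of specimen inhibiting growth, expressed as μg/ml of culture medium.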

[2] = system: Staphylococcus aureus Terajima; assay: Antibacterial activity, agar-dilution MIC, organism No. 2; settings: Staphylococcus aureus; Organism No. 2, bouillon-agar; read-out: Minimum Inhibitory Concentration
Summary of the method: as §1

[3] = system: Staphylococcus aureus MS 353; assay: Antibacterial activity, agar-dilution MIC, organism No. 3; settings: Staphylococcus aureus, MS353; Organism No. 3, bouillon-agar; read-out: Minimum Inhibitory Concentration
Summary of the method: as §1

[4] = system: Streptococcus pyogenes Cook; assay: Antibacterial activity, agar-dilution MIC, organism No. 4; settings: Streptococcus pyogenes; Organism No. 4, bouillon-agar; read-out: Minimum Inhibitory Concentration
Summary of the method: as §1

[5] = system: Escherichia coli NIHJ-JC-2; assay: Antibacterial activity, agar-dilution MIC, organism No. 5; settings: Escherichia coli, NIHJJC2; Organism No. 5, bouillon-agar; read-out: Minimum Inhibitory Concentration
Summary of the method: as §1

[6] = system: Escherichia coli K12 C600 IAM 1264; assay: Antibacterial activity, agar-dilution MIC, organism No. 6; settings: Escherichia coli, IAM1264; Organism No. 6, bouillon-agar; read-out: Minimum Inhibitory Concentration
Summary of the method: as §1

[7] = system: Klebsiella pneumoniae PCI-602; assay: Antibacterial activity, agar-dilution MIC, organism No. 7; settings: Klebsiella pneumoniae, PCI602; Organism No. 7, bouillon-agar; read-out: Minimum Inhibitory Concentration
Summary of the method: as §1

[8] = system: Salmonella typhimurium IID 971; assay: Antibacterial activity, agar-dilution MIC, organism No. 8; settings: Salmonella enterica; Organism No. 8, bouillon-agar; read-out: Minimum Inhibitory Concentration
Summary of the method: as §1

Salmonella typhi 901 = assay: Antibacterial activity, agar-dilution MIC, organism No. 9; settings: Salmonella enterica, TYPHI, read-out: Minimum Inhibitory Concentration
Summary of the method: as §1

[9] = system: Salmonella paratyphi-A 1015; assay: Antibacterial activity, agar-dilution MIC, organism No. 10; settings: Salmonella enterica, PARATYPHI, read-out: Minimum Inhibitory Concentration
Summary of the method: as §1

[10] = system: Salmonella shottmuelleri 8006; assay: Antibacterial activity, agar-dilution MIC, organism No. 11; settings: Salmonella, 8006; Organism No. 11, bouillon-agar; read-out: Minimum Inhibitory Concentration
Summary of the method: as §1

[11] = system: Salmonella enteritidis G 14; assay: Antibacterial activity, agar-dilution MIC, organism No. 12; settings: Salmonella enterica, ENTERITIDIS; Organism No. 12, bouillon-agar; read-out: Minimum Inhibitory Concentration
Summary of the method: as §1

[12] = system: Serratia marcescens IAM 1184; assay: Antibacterial activity, agar-dilution MIC, organism No. 13; settings: Serratia marcescens, IAM1184; Organism No. 13, bouillon-agar; read-out: Minimum Inhibitory Concentration
Summary of the method: as §1

[13] = system: Bacillus subtilis ATCC 6633; assay: Antibacterial activity, agar-dilution MIC, organism No. 14; settings: Bacillus subtilis, ATCC6633; Organism No. 14, bouillon-agar; read-out: Minimum Inhibitory Concentration
Summary of the method: as §1

[14] = system: Pseudomonas aeruginosa IFO 3445; assay: Antibacterial activity, agar-dilution MIC, organism No. 15; settings: Pseudomonas aeruginosa, IFO3445; Organism No. 15, bouillon-agar; read-out: Minimum Inhibitory Concentration
Summary of the method: as §1

[15] = system: Pseudomonas aeruginosa NCTC 10490; assay: Antibacterial activity, agar-dilution MIC, organism No. 16; settings: Pseudomonas aeruginosa, NCTC10490; Organism No. 16, bouillon-agar; read-out: Minimum Inhibitory Concentration
Summary of the method: as §1

[16] = system: Pseudomonas aeruginosa PAO 1; assay: Antibacterial activity, agar-dilution MIC, organism No. 17; settings: Pseudomonas aeruginosa, PAO1; Organism No. 17, bouillon-agar; read-out: Minimum Inhibitory Concentration
Summary of the method: as §1

[17] = system: Proteus morganii IFO 3848; assay: Antibacterial activity, agar-dilution MIC, organism No. 18; settings: Morganella morganii, IFO3848; Organism No. 18, bouillon-agar; read-out: Minimum Inhibitory Concentration
Summary of the method: as §1

[18] = system: Proteus mirabilis IFO 3849; assay: Antibacterial activity, agar-dilution MIC, organism No. 19; settings: Proteus mirabilis, IFO3849; Organism No. 19, bouillon-agar; read-out: Minimum Inhibitory Concentration
Summary of the method: as §1

Proteus vulgaris OX-19 = assay: Antibacterial activity, agar-dilution MIC, organism No. 20; settings: Proteus vulgaris, OX19; Organism No. 20, bouillon-agar; read-out: Minimum Inhibitory Concentration
Summary of the method: as §1

Proteus vulgaris HX-19 = assay: Antibacterial activity, agar-dilution MIC, organism No. 21; settings: Proteus vulgaris, HX19; Organism No. 21, bouillon-agar; read-out: Minimum Inhibitory Concentration
Summary of the method: as §1

[19] = system: Proteus rettgeri IFO 3850; assay: Antibacterial activity, agar-dilution MIC, organism No. 22; settings: Providencia rettgeri, IFO3850; Organism No. 22, bouillon-agar; read-out: Minimum Inhibitory Concentration
Summary of the method: as §1

[20] = system: Enterobacter aerogenes ATCC 13048; assay: Antibacterial activity, agar-dilution MIC, organism No. 23; settings: Klebsiella aerogenes, ATCC13048; Organism No. 23, bouillon-agar; read-out: Minimum Inhibitory Concentration
Summary of the method: as §1

Enterobacter cloacae 963 = assay: Antibacterial activity, agar-dilution MIC, organism No. 24; settings: Enterobacter cloacae, 963; Organism No. 24, bouillon-agar; read-out: Minimum Inhibitory Concentration
Summary of the method: as §1

[21] = system: Micrococcus luteus ATCC 9341; assay: Antibacterial activity, agar-dilution MIC, organism No. 25; settings: Micrococcus luteus, ATCC9341; Organism No. 25, bouillon-agar; read-out: Minimum Inhibitory Concentration
Summary of the method: as §1

[22] = system: Streptococcus pyogenes IFO 3340; assay: Antibacterial activity, agar-dilution MIC, organism No. 26; settings: Streptococcus pyogenes, IFO3340; Organism No. 26, bouillon-agar; read-out: Minimum Inhibitory Concentration
Summary of the method: as §1

[23] = system: Streptococcus faecium IFO 3826; assay: Antibacterial activity, agar-dilution MIC, organism No. 27; settings: Enterococcus faecium, IFO3826; Organism No. 27, bouillon-agar; read-out: Minimum Inhibitory Concentration
Summary of the method: as §1

[24] = system: Mycoplasma pneumoniae IID817; assay: Antimycoplasmal activity, MIC by phenol red colour change, organism No. 28; settings: Mycoplasma, IID817; Organism No. 28, PPLO broth + 1% glucose, 37° C.; read-out: Minimum Inhibitory Concentration (MIC)
Procedure: Mycoplasma pneumoniae IID817 was used as the test microorganism in a culture medium prepared by adding 1% of glucose to "PPLO broth (manufactured by Difco Co.) liquid culture medium" at 37° C. with phenol red as an indicator, thereby culturing the test microorganism.

[25] = system: Candida albicans IAM 4905; assay: Antifungal activity, agar-dilution MIC, organism No. 29; settings: Candida albicans, IAM4905; Organism No. 29, bouillon-agar; read-out: Minimum Inhibitory Concentration
Summary of the method: as §1

[26] = system: Aspergillus niger IFO 6342; assay: Antifungal activity, agar-dilution MIC, organism No. 30; settings: Aspergillus niger, IFO6342; Organism No. 30, bouillon-agar; read-out: Minimum Inhibitory Concentration
Summary of the method: as §1

Compound	MIC [1]	MIC [2]	MIC [3]	MIC [4]	MIC [5]	MIC [6]	MIC [7]	MIC [8]	MIC (Salmonella typhi 901)	MIC [9]	MIC [10]	MIC [11]	MIC [12]	MIC [13]	MIC [14]	MIC [15]	MIC [16]	MIC [17]	MIC [18]	MIC (Proteus vulgaris OX-19)	also measured
[C-]#[N+]C12CC3(/C=C/C(=O)NC4CCCCC4)OC3C1O2 (stereo not drawn) [compound 20]	1.56 µg/mL (≈ 5.69 µM)	12.5 µg/mL (≈ 45.6 µM)	1.56 µg/mL (≈ 5.69 µM)	6.25 µg/mL (≈ 22.8 µM)	> 200 µg/mL	> 200 µg/mL	0.39 µg/mL (≈ 1.42 µM)	100 µg/mL (≈ 365 µM)	6.25 µg/mL (≈ 22.8 µM)	6.25 µg/mL (≈ 22.8 µM)	3.13 µg/mL (≈ 11.4 µM)	12.5 µg/mL (≈ 45.6 µM)	> 200 µg/mL	50 µg/mL (≈ 182 µM)	> 200 µg/mL	> 200 µg/mL	> 200 µg/mL	0.78 µg/mL (≈ 2.84 µM)	> 200 µg/mL	0.78 µg/mL (≈ 2.84 µM)	MIC (Proteus vulgaris HX-19): 0.1 µg/mL (≈ 0.365 µM); MIC [19]: > 200 µg/mL; MIC [20]: > 200 µg/mL; MIC (Enterobacter cloacae 963): > 200 µg/mL; MIC [21]: < 0.05 µg/mL; MIC [22]: 6.25 µg/mL (≈ 22.8 µM); MIC [23]: 12.5 µg/mL (≈ 45.6 µM); MIC [24]: < 0.2 µg/mL; MIC [25]: 1.56 µg/mL (≈ 5.69 µM); MIC [26]: 6.25 µg/mL (≈ 22.8 µM)
[C-]#[N+]C12CC3(/C=C/C(=O)N4CCCC4)OC3C1O2 (stereo not drawn) [compound 21]	50 µg/mL (≈ 203 µM)	100 µg/mL (≈ 406 µM)	50 µg/mL (≈ 203 µM)	100 µg/mL (≈ 406 µM)	> 200 µg/mL	> 200 µg/mL	50 µg/mL (≈ 203 µM)	100 µg/mL (≈ 406 µM)	50 µg/mL (≈ 203 µM)	100 µg/mL (≈ 406 µM)	50 µg/mL (≈ 203 µM)	50 µg/mL (≈ 203 µM)	> 200 µg/mL	200 µg/mL (≈ 812 µM)	> 200 µg/mL	> 200 µg/mL	> 200 µg/mL	50 µg/mL (≈ 203 µM)	> 200 µg/mL	25 µg/mL (≈ 102 µM)	MIC (Proteus vulgaris HX-19): 1.56 µg/mL (≈ 6.33 µM); MIC [19]: > 200 µg/mL; MIC [20]: > 200 µg/mL; MIC (Enterobacter cloacae 963): > 200 µg/mL; MIC [21]: 0.39 µg/mL (≈ 1.58 µM); MIC [22]: > 200 µg/mL; MIC [23]: > 200 µg/mL; MIC [24]: 1.56 µg/mL; MIC [25]: 6.25 µg/mL (≈ 25.4 µM); MIC [26]: 3.13 µg/mL (≈ 12.7 µM)
[C-]#[N+]C12CC3(/C=C/C(=O)N4CCOCC4)OC3C1O2 (stereo not drawn) [compound 22]	50 µg/mL (≈ 191 µM)	100 µg/mL (≈ 381 µM)	50 µg/mL (≈ 191 µM)	50 µg/mL (≈ 191 µM)	50 µg/mL (≈ 191 µM)	50 µg/mL (≈ 191 µM)	50 µg/mL (≈ 191 µM)	25 µg/mL (≈ 95.3 µM)	6.25 µg/mL (≈ 23.8 µM)	25 µg/mL (≈ 95.3 µM)	25 µg/mL (≈ 95.3 µM)	12.5 µg/mL (≈ 47.7 µM)	> 200 µg/mL	200 µg/mL (≈ 763 µM)	> 200 µg/mL	> 200 µg/mL	> 200 µg/mL	6.25 µg/mL (≈ 23.8 µM)	> 200 µg/mL	12.5 µg/mL (≈ 47.7 µM)	MIC (Proteus vulgaris HX-19): 1.56 µg/mL (≈ 5.95 µM); MIC [19]: > 200 µg/mL; MIC [20]: > 200 µg/mL; MIC (Enterobacter cloacae 963): > 200 µg/mL; MIC [21]: 0.39 µg/mL (≈ 1.49 µM); MIC [22]: 200 µg/mL (≈ 763 µM); MIC [23]: > 200 µg/mL; MIC [24]: 1.56 µg/mL; MIC [25]: 6.25 µg/mL (≈ 23.8 µM); MIC [26]: 3.13 µg/mL (≈ 11.9 µM)
